According to patent publication US20240174690A1, “ANNULATED 2-AMINO-3-CYANO THIOPHENES AND DERIVATIVES FOR THE TREATMENT OF CANCER” (BOEHRINGER INGELHEIM INTERNATIONAL GMBH, priority 2021, published 2024):
Where two headings read alike, the source gives them in different places.

Columns and labels:
MKN1 cells = test: MKN1 CTG proliferation assay (120 h) (gastric cancer, wt amplified); assay type: cell-based; details: Homo sapiens
Procedure: MKN1 CTG Proliferation Assay (120 h) (Gastric Cancer, Wt Amplified)
MKN1 cells (JCRB0252) are dispensed into white 384-well plates, flat and white bottom (Corning Costar, PNr.: 3570) at a density of 400 cells per well in 50 μL RPMI 1640 (PAN-Biotech, PNr.: P04-18047)+10% FCS (HyClone, PNr.: SH30084.03) (assay 1) or into white 384-well plates, flat and white bottom (Perkin Elmer, 6007680) at a density of 500 cells per well in 40 μl RPMI (Gibco, PNr.: 21875034)+10% FCS (HyClone, PNr.: SH30084.03) (assay 2) or into black 384-well plates, flat and clear bottom (Greiner, PNr. 781091) at a density of 200 cells per well in 60 μl RPMI-1640 (Gibco #A10491)+10% FCS (HyClone, PNr.: SH30084.03)+PenStrep (Gibco, PNr.15140-122) (assay 3). […] Compounds (10 mM stock in DMSO) are added at logarithmic dose series using the HP Digital Dispenser D300 (Tecan) (assay 1+2) or the ECHO acoustic liquid handler system (Beckman Coulter) (assay 3), including DMSO controls and normalizing for added DMSO. Plates are incubated for 120 h, and cell viability is measured using CellTiter-Glo luminescent cell viability reagent (Promega product code G7570). Viability (stated as percent of control) is defined as relative luminescence units RLU of each well divided by the RLU of cells in DMSO controls. IC50 values are determined from viability measurements by non-linear regression using a four-parameter model.

GP2D cells = test: GP2D proliferation assay (120 h) (colorectal cancer, G12D); assay type: cell-based
Procedure: GP2D Proliferation Assay (120 h) (Colorectal Cancer, G12D)
GP2D cells (ATCC No. CRL-5807) are dispensed into white 384-well plates, flat and white bottom (Perkin Elmer, 6007680) at a density of 500 cells per well in 40 μl DMEM (Sigma, D6429)+1×GlutaMAX (Gibco, 35050038)+10% FCS (fetal calf serum). […] Compounds (10 mM stock in DMSO) are added at logarithmic dose series using the HP Digital Dispenser D300 (Tecan), including DMSO controls and normalizing for added DMSO. For the TO time point measurement, untreated cells are analyzed at the time of compound addition. Plates are incubated for 120 h, and cell viability is measured using CellTiter-Glo luminescent cell viability reagent (Promega product code G7570). Viability (stated as percent of control) is defined as relative luminescence units RLU of each well divided by the RLU of cells in DMSO controls. IC50 values are determined from viability measurements by non-linear regression using a four parameter model.

[1] = MKN-1, assay 2, CTG 120 h, read-out: MKN1 (assay 2) IC50
[2] = MKN-1, assay 3, CTG 120 h, read-out: MKN1 (assay 3) IC50
[3] = MKN-1, assay 1, CTG 120 h, read-out: MKN1 (assay 1) IC50

Structure (SMILES) | IC50 (MKN1 cells; [1]) [nM] | IC50 (MKN1 cells; [2]) [nM] | IC50 (GP2D cells) [nM] | IC50 (MKN1 cells; [3]) [nM]
CO[C@@H]1C[C@@H]([C@H](C)Oc2cc(N3CCNC4(CC4)C3)nc(-c3noc4c3CCC[C@@]43CCCc4sc(N)c(C#N)c43)n2)N(C)C1 [II-187] | 383 | 357 | 1 | –
C[C@H](Oc1cc(-n2cc3c(n2)CNC3)nc(-c2noc3c2CCC[C@@]32CCCc3sc(N)c(C#N)c32)n1)[C@@H]1C[C@@H](F)CN1C [II-154] | – | – | 39 | –
CO[C@H]1CCN(C)[C@@H]1[C@H](C)Oc1cc(N2CCNC3(CC3)C2)nc(-c2noc3c2CCC[C@@]32CCCc3sc(N)c(C#N)c32)n1 [II-184] | 227 | 68 | – | –
C[C@H](Oc1cc(-n2ccc(C(=O)N(C)C3COC3)n2)nc(-c2noc3c2CCC[C@@]32CCCc3sc(N)c(C#N)c32)n1)[C@@H]1CCCN1C [II-194] | – | 25 | – | 20
CO[C@H]1CCN(C)[C@@H]1[C@H](C)Oc1cc(-n2ccc(C(=O)N[C@H]3CCOC3)n2)nc(-c2noc3c2CCC[C@@]32CCCc3sc(N)c(C#N)c32)n1 [II-198] | – | 15 | – | –
C[C@H](Oc1cc(-n2ccc(-c3cn([C@@H]4CCOC4)nn3)n2)nc(-c2noc3c2CCC[C@@]32CCCc3sc(N)c(C#N)c32)n1)[C@@H]1CCCN1C [II-211] | – | 22 | – | –
C[C@H](Oc1cc(-c2cn(C)nn2)nc(-c2onc3c2CCC[C@@]32CCCc3sc(N)c(C#N)c32)n1)[C@@H]1CCCN1C [I-16] | – | – | 673 | –
C[C@H](Oc1cc(-c2ccn(C)n2)nc(-c2noc3c2CCC[C@@]32CCCc3sc(N)c(C#N)c32)n1)[C@@H]1C[C@H](F)CN1C [II-144] | – | – | > 1000 | –
C[C@H](Oc1cc(-n2ccc(-c3cn(CC4(C)COC4)nn3)n2)nc(-c2noc3c2CCC[C@@]32CCCc3sc(N)c(C#N)c32)n1)[C@@H]1CCCN1C [II-213] | – | 12 | – | –
CC(C)N1CCCN(c2cc(-n3ccnc3)nc(-c3noc4c3CCC[C@@]43CCCc4sc(N)c(C#N)c43)n2)[C@@H](C)C1 [II-169] | – | – | 1870 | –
C[C@H](Oc1cc(-n2cc3ccn([C@@H](C)c4ccccn4)c(=O)c3n2)nc(-c2noc3c2CCC[C@@]32CCCc3sc(N)c(C#N)c32)n1)[C@@H]1CCCN1C [II-205] | – | 33 | – | –
CO[C@@H]1C[C@@H]([C@H](C)Oc2cc(N3CCN(C)C4(COC4)C3)nc(-c3noc4c3CCC[C@@]43CCCc4sc(N)c(C#N)c43)n2)N(C)C1 [II-153] | – | – | 14 | –
C[C@H](Oc1cc(N2C[C@H](C)N(C)[C@@H](C)C2)nc(-c2noc3c2CCC[C@@]32CCCc3sc(N)c(C#N)c32)n1)[C@@H]1CCCN1C [II-173] | – | – | 107 | –
C[C@H](Oc1cc(-n2cc3ccn(C4CCOCC4)c(=O)c3n2)nc(-c2noc3c2CCC[C@@]32CCCc3sc(N)c(C#N)c32)n1)[C@@H]1CCCN1C [II-206] | – | 34 | – | –
C[C@H](Oc1cc(-n2cc3ccn([C@H]4CCOC4)c(=O)c3n2)nc(-c2noc3c2CCC[C@@]32CCCc3sc(N)c(C#N)c32)n1)[C@@H]1CCCN1C [II-202] | – | 27 | – | –
C[C@H](Oc1cc(-n2cc3ccn(C[C@H]4CCOC4)c(=O)c3n2)nc(-c2noc3c2CCC[C@@]32CCCc3sc(N)c(C#N)c32)n1)[C@@H]1CCCN1C [II-204] | 33 | 48 | 122 | –
CO[C@H]1CCN(C)[C@@H]1[C@H](C)Oc1cc(N2CCN(C)C3(CC3)C2)nc(-c2noc3c2CCC[C@@]32CCCc3sc(N)c(C#N)c32)n1 [II-186] | 313 | 260 | 2 | –
CO[C@H]1CCN(C)[C@@H]1[C@H](C)Oc1cc(-n2ccc(C(=O)N[C@@H]3CCOC3)n2)nc(-c2noc3c2CCC[C@@]32CCCc3sc(N)c(C#N)c32)n1 [II-197] | – | 16 | – | –
CC(C)NC(=O)Cc1ccn(-c2cc(O[C@@H](C)[C@@H]3CCCN3C)nc(-c3noc4c3CCC[C@@]43CCCc4sc(N)c(C#N)c43)n2)n1 [II-182] | – | 12 | – | 24
COCCNC(=O)c1ccn(-c2cc(O[C@@H](C)[C@@H]3[C@@H](OC)CCN3C)nc(-c3noc4c3CCC[C@@]43CCCc4sc(N)c(C#N)c43)n2)n1 [II-200] | – | 11 | – | –
C[C@H](Oc1cc(N2CCNC[C@@]23CCOC3)nc(-c2onc3c2CCC[C@@]32CCCc3sc(N)c(C#N)c32)n1)[C@@H]1CCCN1C [I-13] | – | 679 | – | –
C[C@H](Oc1cc(-n2cc3ccn([C@@H]4CCOC4)c(=O)c3n2)nc(-c2noc3c2CCC[C@@]32CCCc3sc(N)c(C#N)c32)n1)[C@@H]1CCCN1C [II-203] | 41 | 63 | 137 | –
CCN1CCN(c2cc(O[C@@H](C)[C@@H]3C[C@@H](F)CN3C)nc(-c3noc4c3CCC[C@@]43CCCc4sc(N)c(C#N)c43)n2)CC12CC2 [II-185] | > 949 | 1900 | 15 | –
C[C@H](Oc1cc(N2CCOC2=O)nc(-c2noc3c2CCC[C@@]32CCCc3sc(N)c(C#N)c32)n1)[C@@H]1CCCN1C [II-143] | – | – | 59 | –
C[C@H](Oc1cc(-n2ccc(-c3cn([C@H]4CCOC4)nn3)n2)nc(-c2noc3c2CCC[C@@]32CCCc3sc(N)c(C#N)c32)n1)[C@@H]1CCCN1C [II-212] | – | 17 | – | –
[2H]C([2H])([2H])N1C[C@H](F)C[C@H]1[C@H](C)Oc1cc(N2CCN(C([2H])([2H])[2H])C3(CC3)C2)nc(-c2noc3c2CCC[C@@]32CCCc3sc(N)c(C#N)c32)n1 [II-207] | – | 785 | – | –
CO[C@H]1CCN(C)[C@@H]1[C@H](C)Oc1cc(-n2ccc(C(N)=O)n2)nc(-c2noc3c2CCC[C@@]32CCCc3sc(N)c(C#N)c32)n1 [II-201] | – | 14 | – | 20
C[C@H](Oc1cc(N2CCNC[C@]23CCOC3)nc(-c2onc3c2CCC[C@@]32CCCc3sc(N)c(C#N)c32)n1)[C@@H]1CCCN1C [I-12] | – | – | 1 | –
CO[C@H]1CCN(C)[C@@H]1[C@H](C)Oc1cc(-n2ccc(CC(=O)NC(C)C)n2)nc(-c2noc3c2CCC[C@@]32CCCc3sc(N)c(C#N)c32)n1 [II-183] | – | 41 | – | –
CO[C@H]1CCN(C)[C@@H]1[C@H](C)Oc1cc(-n2ccc(C(=O)N(C)C3COC3)n2)nc(-c2noc3c2CCC[C@@]32CCCc3sc(N)c(C#N)c32)n1 [II-199] | – | 51 | – | –
